{"source": "patent US20230266321A1", "about": "“LIVE CELL ENGAGEMENT ASSAY” (Icahn School of Medicine at Mount Sinai, priority 2020, published 2023)", "key": {"[1]": {"target": "BRAF-MEK1 complex (Homo sapiens, UniProt Q02750)", "details": "HCT116 cells, 200 nM, 1 hour"}, "[2]": {"test_system": "luciferase-tagged human KSR1, KSR2, ARAF, BRAF, and CRAF/RAF1", "assay": "RAF family tram-bo buildup curves (NanoBRET)", "format": "cell-based", "details": "BRET buildup curves with increasing tracer concentrations", "procedure": "Human c-terminal NanoLuc fusions versions of ARAF (Uniprot P10398), BRAF (UniProt P15056), CRAF (Uniprot P04049), KSR1 (Uniprot Q8IVT5), and KSR2 (Uniprot Q6VAB6) were transfected as mentioned above at a concentration of 0.1 µg/mL in combination with 9.9 µg/mL of carrier DNA. All RAF constructs from Promega. […] A 20x tram-bo solution was added to each well to give final concentrations of 4, 1, 0.5, 0.1, 0.05, 0.01, 0.001, 0.0001 µM. […] All data were analyzed using Prism 8 (GraphPad)."}, "[3]": {"target": "T1, MEK-NL (Homo sapiens, UniProt Q02750)", "T1 construct": "expressed in transfected cells; host or cells: HEK293T", "assay": "Tracer buildup curves on MEK-NLuc (NanoBRET)", "format": "cell-based", "details": "HEK293T cells, 2 hrs at 37° C.; read-out: binding affinity to MEK-NL (tracer buildup curves)", "procedure": "(v) Tram-bo and PD-bo buildup curves measure on MEK-NLuc. A human C-terminal NanoLuc fusion of MEK was transfected as mentioned above at a concentration of […] in combination with […] of carrier DNA. […] A 20x solution was added to each well to give final concentrations of 2, 1, 0.5, 0.1, 0.05, 0.01, 0.001, 0.0001 mM for PD-bo, and 1, 0.1, 0.05, 0.01, 0.005, 0.001, 0.0001, 0.00001 for Tram-bo. […] All data were analyzed using Prism 8 (GraphPad)"}, "[4]": {"target": "T2, mouse KSR1-luc (KSR-bound MEK) (UniProt Q02750+Q61097)", "T2 construct": "expressed in transfected cells; host or cells: HEK293T", "assay": "NanoBRET in-cell steady-state competition with tram-bo on KSR1-luc", "format": "cell-based"}, "[5]": {"target": "MEK1-luc (Homo sapiens, UniProt Q02750)", "assay": "NanoBRET washout / intracellular residence time on MEK1-luc", "details": "cells pre-treated with MEKi, washed, 1 µM tram-bo added"}, "[6]": {"target": "KSR1-MEK1 complex (UniProt Q02750+Q61097, P775N)", "details": "HCT116 cells, 200 nM, 1 hour"}, "[7]": {"test_system": "KRAS-G12S A549 cells", "assay": "Long-term clonogenic assay", "format": "cell-based, human", "details": "10 nM final concentration, in comparison to amide-linker compounds (eg. 1, 3)", "procedure": "Cells were plated at a density of 6,000 cells per well in 6-well plates in 3 mL of culture medium. Twenty-four hours after seeding, compounds dissolved in DMSO or DMSO-only vehicles were added directly to the culture media at a 1:1000 dilution. Following 10 days of culture, cells were washed 2x in PBS, fixed in ice-cold methanol for 10 minutes, stained with crystal-violet at room temperature for 10 minutes, and subsequently washed three times in water. Plates were allowed to dry overnight before imagining with an Epson V600 scanner."}, "[8]": {"test_system": "MEK1 and MEK2 (kinase panel incl. BRAF, CRAF)", "assay": "In vitro kinase profiling, direct binding assays", "details": "1 µM"}, "[9]": {"test_system": "phosphorylated ERK1/2 (T202/Y204)", "assay": "Immunoblot of RAS/ERK pathway inhibition", "format": "cell-based, human", "details": "1 hour, increasing concentrations, relative to trametinib", "procedure": "Cells were plated at a density of 300,000 cells per well in 6-well plates in 2 mL of culture medium. 24 hours after seeding, cells were treated with compounds or DMSO at a 1:1000 dilution (0.1 % DMSO in final volume). […] Samples were normalized to a protein content of 5 µg/µL in 100 µL total volume, and 20 µL of 6x SDS was added. […] Transfers were confirmed using ponceau red, washed, and then blocked for 1 hour with 5% BSA TBS-T, prior to overnight incubation with primary antibodies including phospho-ERK1/2 T202/Y204 and total ERK1/2 (Cell Signaling Technologies (CST) 9101S and 4695S, respectively) in 5% BSA TBS-T. The next day, blots were washed extensively, and incubated in secondary antibody (Anti-Rabbit IgG HRP-Linked CST 7074S)."}, "[10]": {"test_system": "MEK1, MEK2 and upstream kinases BRAF, CRAF", "assay": "In vitro kinase profiling, substrate phosphorylation assays", "format": "biochemical", "details": "incl. BRAF and CRAF phosphorylation of MEK1 as substrate"}, "[11]": {"test_system": "HCT116 cells", "assay": "Cell proliferation/viability assay under low-adherence conditions", "format": "cell-based, human", "procedure": "A375, A549, HCT116, and SKMEL-239 cells were plated in Corning Costar Ultra-Low Attachment 96-well plates (Reference number 3434). After 24 hours of incubation at 37° C., cells were treated with inhibitors (0.1% DMSO in final volume). Cells were grown for five days, and resazurin sodium salt was added at a final concentration of 0.01 µg/µL. Fluorescence was measured using a Molecular Devices SpectraMax M5 spectrophotometer after a 4-24-hour incubation with resazurin solution. Technical triplicate values were averaged for each experiment, and biological replicate values are represented as average +/- standard deviation. For each cell line, logEC50 values of inhibitors were statistically compared using the extra sum-of-squares F test in GraphPad Prism 8 (FIGS. 57, 58, 67, 68, 69)."}, "[12]": {"details": "HCT116, low-adherence conditions"}}, "data": [{"molecule": "CNS(=O)(=O)Nc1nccc(Cc2c(C)c3ccc(Oc4ncccn4)cc3oc2=O)c1F", "note": "[CH5126766, reference compound]", "values": [{"measurement": "effect on BRAF pulled down via endogenous MEK1 (co-IP)", "setting": "[1]", "result": "enhances interactions between endogenous BRAF and MEK1"}]}, {"molecule": "Cc1c(=O)n(C)c(Nc2ccc(I)cc2F)c2c(=O)n(C3CC3)c(=O)n(-c3cccc(NC(=O)CCOCCOCCNC(=O)CCC4=[N+]5C(=Cc6ccc(-c7ccc[nH]7)n6[B-]5(F)F)C=C4)c3)c12", "note": "[Tram-bo]", "values": [{"measurement": "tighter binding on KSR1-luc and KSR2-luc relative to ARAF-luc, BRAF-luc, and CRAF-luc", "setting": "[2]", "result": "~ 10 fold"}, {"measurement": "EC50", "setting": "[3]", "result": 4.7, "unit": "nM"}]}, {"molecule": "O=C(c1ccc(F)c(F)c1Nc1ccc(I)cc1F)N1CC(O)([C@@H]2CCCCN2)C1", "note": "[cobimetinib]", "values": [{"measurement": "IC50", "setting": "[4]; HEK293T cells, 1 µM tram-bo tracer, equilibrium binding, mean ± s.e.m., read-out: steady-state IC50 against KSR1-luc", "result": "5.1 ± 0.7", "unit": "nM"}, {"measurement": "difference in potency between KSR1-luc and MEK1-luc", "setting": "[4]; IC50 MEK1-luc vs KSR1-luc", "result": "~20", "unit": "fold"}, {"measurement": "dissociation kinetics after washout on MEK1-luc", "setting": "[5]", "result": "dissociated more readily"}, {"measurement": "effect on complex stability of K1 (KSR1 P775N) and B2 (BRAF R662A) mutants with MEK (co-IP)", "setting": "[6]", "result": "did not alter complex stability"}]}, {"molecule": "Cc1c(=O)n(C)c(Nc2ccc(I)cc2F)c2c(=O)n(C3CC3)c(=O)n(-c3cccc(NS(=O)(=O)NC4CC4)c3)c12", "note": "[compound 5]", "values": [{"measurement": "growth inhibition in long-term clonogenic assay", "setting": "[7]", "result": "enhanced and durable growth inhibition"}]}, {"molecule": "CCN(C)S(=O)(=O)Nc1cccc(-n2c(=O)n(C3CC3)c(=O)c3c(Nc4ccc(I)cc4F)n(C)c(=O)c(C)c32)c1", "note": "[compound 6]", "values": [{"measurement": "growth inhibition in long-term clonogenic assay", "setting": "[7]", "result": "enhanced and durable growth inhibition"}]}, {"molecule": "CNS(=O)(=O)Nc1cccc(-n2c(=O)n(C3CC3)c(=O)c3c(Nc4ccc(I)cc4F)n(C)c(=O)c(C)c32)c1", "note": "[trametiglue]", "values": [{"measurement": "potency and off-rate kinetics in cellular target engagement assays", "setting": "[4]; KSR-luc or MEK-luc reporters, residence time at 6.25 nM", "result": "retained similar potency and off-rate kinetics as trametinib"}, {"measurement": "growth inhibition in long-term clonogenic assay", "setting": "[7]", "result": "enhanced and durable growth inhibition"}, {"measurement": "direct interaction with isolated BRAF or CRAF in binding experiments", "setting": "[8]", "result": "no direct interactions towards isolated BRAF or CRAF"}, {"measurement": "selectivity in direct binding assays", "setting": "[8]", "result": "strong selectivity towards MEK1 and MEK2"}, {"measurement": "inhibition of RAS-MAPK signaling as measured by pERK", "setting": "[9]", "result": "higher potency inhibitor of RAS-MAPK signaling"}, {"measurement": "inhibition in substrate phosphorylation assays", "setting": "[10]", "result": "not only inhibited MEK1 and MEK2, but also upstream kinases"}, {"measurement": "effect on BRAF pulled down via endogenous MEK1 (co-IP)", "setting": "[1]", "result": "markedly enhanced capture of BRAF"}, {"measurement": "improvement in potency relative to CH5126766", "setting": "[11]; [12]", "result": "~200", "unit": "fold"}, {"measurement": "improvement in potency relative to trametinib", "setting": "[11]; [12]", "result": "approximately 7 fold"}, {"measurement": "IC50", "setting": "[11]; low-adherence conditions, five days, resazurin, read-out: IC50 in the cell line HCT116", "result": "0.07 ± 0.04", "unit": "nM"}]}]}
